pIC50: −log10 of the molar value.

The target in this experiment is T1, HDAC6 (Homo sapiens, UniProt Q9UBN7).
T1 construct: Full length human recombinant HDAC6 protein was expressed in baculoviral system; made in house; host or cells: baculoviral system
T1 sequence (Q9UBN7 1-1215): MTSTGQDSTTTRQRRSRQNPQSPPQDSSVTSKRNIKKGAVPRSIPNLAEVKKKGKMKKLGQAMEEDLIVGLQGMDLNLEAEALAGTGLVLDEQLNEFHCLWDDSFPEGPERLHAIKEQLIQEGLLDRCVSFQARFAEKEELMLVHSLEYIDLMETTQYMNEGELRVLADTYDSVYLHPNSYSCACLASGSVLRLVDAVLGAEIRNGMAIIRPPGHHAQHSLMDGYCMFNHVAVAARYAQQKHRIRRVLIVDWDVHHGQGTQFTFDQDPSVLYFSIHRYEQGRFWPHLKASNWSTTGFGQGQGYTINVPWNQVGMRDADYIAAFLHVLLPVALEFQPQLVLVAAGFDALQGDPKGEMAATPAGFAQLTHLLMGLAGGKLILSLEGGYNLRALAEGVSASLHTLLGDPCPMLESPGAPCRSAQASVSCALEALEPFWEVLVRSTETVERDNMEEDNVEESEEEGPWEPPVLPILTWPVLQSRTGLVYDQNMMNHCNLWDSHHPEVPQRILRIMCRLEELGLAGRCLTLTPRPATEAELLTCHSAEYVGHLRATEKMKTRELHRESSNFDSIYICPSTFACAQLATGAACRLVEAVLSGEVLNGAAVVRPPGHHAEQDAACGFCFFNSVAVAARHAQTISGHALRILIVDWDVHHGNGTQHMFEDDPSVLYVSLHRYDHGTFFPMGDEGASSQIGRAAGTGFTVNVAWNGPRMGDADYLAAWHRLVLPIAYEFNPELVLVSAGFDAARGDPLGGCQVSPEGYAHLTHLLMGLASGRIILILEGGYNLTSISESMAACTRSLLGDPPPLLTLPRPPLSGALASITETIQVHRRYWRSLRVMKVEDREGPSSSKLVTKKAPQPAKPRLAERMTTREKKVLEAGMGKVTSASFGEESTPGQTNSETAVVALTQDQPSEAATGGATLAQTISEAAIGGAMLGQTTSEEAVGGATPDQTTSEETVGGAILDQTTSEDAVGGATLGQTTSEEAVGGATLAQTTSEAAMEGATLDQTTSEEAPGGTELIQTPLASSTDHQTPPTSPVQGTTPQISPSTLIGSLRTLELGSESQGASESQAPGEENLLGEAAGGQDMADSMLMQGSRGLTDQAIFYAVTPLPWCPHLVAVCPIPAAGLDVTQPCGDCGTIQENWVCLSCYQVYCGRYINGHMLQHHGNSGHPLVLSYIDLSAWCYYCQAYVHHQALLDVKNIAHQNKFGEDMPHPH
Kind of experiment: In vitro Histone Deacetylase Assay (enzymatic HDAC6 electrophoretic mobility shift assay). The conditions noted are these: full length human recombinant HDAC6, 1 nM enzyme, 2 μM peptide substrate RHKK(Ac)-NH2, 25° C.; read-out: HDAC6 activity range. Format: biochemical. In a few lines:
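Deacetylation was read by microfluidic mobility shift as product/(substrate+product) peak ratio and normalised to 0% and 100% inhibition controls. Reactions used 1 nM baculovirus-expressed full-length human HDAC6 and 2 μM labelled RHKK(Ac)-NH2 in pH 7.5 HEPES buffer with 1% DMSO at 25 °C. IC50 was from 4-parameter fits of 12 concentrations.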
(Mobility shift assays separate free from complexed probe on a gel.)
In the case of `O=C(NO)c1ccc2c(c1)CC[C@]1(CCN(CC(=O)N3CCOCC3)C1=O)C2` [Compound I-43, (R)-N-hydroxy-1′-(2-morpholino-2-oxoethyl)-2′-oxo-3,4-dihydro-1H-spiro[naphthalene-2,3′-pyrrolidine]-6-carboxamide], the pIC50 is not below 7.00.
As for `COc1ccccc1CN1CC[C@]2(CCc3cc(C(=O)NO)ccc3C2)C1=O` [Compound I-44, (R)-N-hydroxy-1′-(2-methoxybenzyl)-2′-oxo-3,4-dihydro-1H-spiro[naphthalene-2,3′-pyrrolidine]-6-carboxamide], the pIC50 is not below 7.00.
For `CC(C)n1c(CN2CC[C@]3(CCc4cc(C(=O)NO)ccc4C3)C2=O)nc2ccccc21` [Compound I-45], the pIC50 is not below 7.00.
Take `Cn1c(CN2CC[C@]3(CCc4cc(C(=O)NO)ccc4C3)C2=O)nc2ccccc21` [Compound I-46, (R)-N-hydroxy-1′-((1-methyl-1H-benzo[d]imidazol-2-yl)methyl)-2′-oxo-3,4-dihydro-1H-spiro[naphthalene-2,3′-pyrrolidine]-6-carboxamide]: the pIC50 is not below 7.00.
For `C=C(C)CN1CC[C@]2(CCc3cc(C(=O)NO)ccc3C2)C1=O` [Compound I-47, (R)-N-hydroxy-1′-(2-methylallyl)-2′-oxo-3,4-dihydro-1H-spiro[naphthalene-2,3′-pyrrolidine]-6-carboxamide], the pIC50 is not below 7.00.
With `O=C(NO)c1ccc2c(c1)CC[C@]1(CCN(Cc3cc(Cl)ccc3Cl)C1=O)C2` [Compound I-48, (R)-1′-(2,5-dichlorobenzyl)-N-hydroxy-2′-oxo-3,4-dihydro-1H-spiro[naphthalene-2,3′-pyrrolidine]-6-carboxamide], the pIC50 was not below 7.00.
With `O=C(NO)c1ccc2c(c1)CC[C@]1(CCN(Cc3c(Cl)cccc3Cl)C1=O)C2` [Compound I-49, (R)-1′-(2,6-dichlorobenzyl)-N-hydroxy-2′-oxo-3,4-dihydro-1H-spiro[naphthalene-2,3′-pyrrolidine]-6-carboxamide], the pIC50 is not below 7.00.
In the case of `O=C(NO)c1ccc2c(c1)CC[C@]1(CCN(Cc3ccccc3)C1=O)C2` [Compound I-50, (R)-1′-benzyl-N-hydroxy-2′-oxo-3,4-dihydro-1H-spiro[naphthalene-2,3′-pyrrolidine]-6-carboxamide], the pIC50 is not below 7.00.
As to `COc1cccc(CN2CC[C@]3(CCc4cc(C(=O)NO)ccc4C3)C2=O)c1` [Compound I-51, (R)-N-hydroxy-1′-(3-methoxybenzyl)-2′-oxo-3,4-dihydro-1H-spiro[naphthalene-2,3′-pyrrolidine]-6-carboxamide], the pIC50 is not below 7.00.
Turning to `O=C(NO)c1ccc2c(c1)CC[C@]1(CCN(Cc3ccccn3)C1=O)C2` [Compound I-52, (R)-N-hydroxy-2′-oxo-1′-(pyridin-2-ylmethyl)-3,4-dihydro-1H-spiro[naphthalene-2,3′-pyrrolidine]-6-carboxamide], the pIC50 is not below 7.00.
For `O=C(NO)c1ccc2c(c1)CC[C@]1(CCN(Cc3cccc(F)c3)C1=O)C2` [Compound I-53, (R)-1′-(3-fluorobenzyl)-N-hydroxy-2′-oxo-3,4-dihydro-1H-spiro[naphthalene-2,3′-pyrrolidine]-6-carboxamide], the pIC50 is not below 7.00.
On to `O=C(NO)c1ccc2c(c1)CC[C@]1(CCN(Cc3cccc(Cl)c3)C1=O)C2` [Compound I-54, (R)-1′-(3-chlorobenzyl)-N-hydroxy-2′-oxo-3,4-dihydro-1H-spiro[napthalene-2,3′-pyrrolidine]-6-carboxamide], for which the pIC50 was not below 7.00.
On to `O=C(NO)c1ccc2c(c1)CC[C@]1(CCN(Cc3ccc(Cl)cc3)C1=O)C2` [Compound I-55, (R)-1′-(4-chlorobenzyl)-N-hydroxy-2′-oxo-3,4-dihydro-1H-spiro[naphthalene-2,3′-pyrrolidine]-6-carboxamide], for which the pIC50 was not below 7.00.
For the compound `COc1ccc(CN2CC[C@]3(CCc4cc(C(=O)NO)ccc4C3)C2=O)cc1` [Compound I-56, (R)-N-hydroxy-1′-(4-methoxybenzyl)-2′-oxo-3,4-dihydro-1H-spiro[naphthalene-2,3′-pyrrolidine]-6-carboxamide], the pIC50 is not below 7.00.
The same measure for `O=C(NO)c1ccc2c(c1)CC[C@]1(CCN(Cc3ccccc3F)C1=O)C2` [Compound I-57, (R)-1′-(2-fluorobenzyl)-N-hydroxy-2′-oxo-3,4-dihydro-1H-spiro[naphthalene-2,3′-pyrrolidine]-6-carboxamide]: not below 7.00; for `O=C(NO)c1ccc2c(c1)CC[C@]1(CCN(Cc3ccc4ccccc4c3)C1=O)C2` [Compound I-58, (R)-N-hydroxy-1′-(naphthalen-2-ylmethyl)-2′-oxo-3,4-dihydro-1H-spiro[naphthalene-2,3′-pyrrolidine]-6-carboxamide]: not below 7.00.
`O=C(NO)c1ccc2c(c1)CC[C@]1(CCN(Cc3ccccc3OC(F)F)C1=O)C2` [Compound I-59, (R)-1′-(2-(difluoromethoxy)benzyl)-N-hydroxy-2′-oxo-3,4-dihydro-1H-spiro[naphthalene-2,3′-pyrrolidine]-6-carboxamide]: the pIC50 was not below 7.00.
For `CCCN1CC[C@@]2(CCc3cc(C(=O)NO)ccc3C2)C1=O` [Compound I-60, (S)-N-hydroxy-2′-oxo-1′-propyl-3,4-dihydro-1H-spiro[naphthalene-2,3′-pyrrolidine]-6-carboxamide] the value was 6.30 to 7.00; for `O=C(NO)c1ccc2c(c1)CC[C@@]1(CCN(CC3CCC3)C1=O)C2` [Compound I-61, (S)-1′-(cyclobutylmethyl)-N-hydroxy-2′-oxo-3,4-dihydro-1H-spiro[naphthalene-2,3′-pyrrolidine]-6-carboxamide], 6.30 to 7.00.
On to `CC(C)CCN1CC[C@@]2(CCc3cc(C(=O)NO)ccc3C2)C1=O` [Compound I-62, (S)-N-hydroxy-1′-isopentyl-2′-oxo-3,4-dihydro-1H-spiro[naphthalene-2,3′-pyrrolidine]-6-carboxamide], for which the pIC50 was 6.30 to 7.00.
For `CC#CCN1CC[C@@]2(CCc3cc(C(=O)NO)ccc3C2)C1=O` [Compound I-63, (S)-1′-(but-2-yn-1-yl)-N-hydroxy-2′-oxo-3,4-dihydro-1H-spiro[naphthalene-2,3′-pyrrolidine]-6-carboxamide], the pIC50 is not below 7.00.
As for `COCCN1CC[C@@]2(CCc3cc(C(=O)NO)ccc3C2)C1=O` [Compound I-64, (S)-N-hydroxy-1′-(2-methoxyethyl)-2′-oxo-3,4-dihydro-1H-spiro[naphthalene-2,3′-pyrrolidine]-6-carboxamide], the pIC50 was 6.30 to 7.00.
For `O=C(NO)c1ccc2c(c1)CC[C@@]1(CCN(C/C=C/c3ccccc3)C1=O)C2` [Compound I-65, (S)-1′-cinnamyl-N-hydroxy-2′-oxo-3,4-dihydro-1H-spiro[naphthalene-2,3′-pyrrolidine]-6-carboxamide], the pIC50 was not below 7.00.
As to `Cc1ccccc1CN1CC[C@@]2(CCc3cc(C(=O)NO)ccc3C2)C1=O` [Compound I-66, (S)-N-hydroxy-1′-(2-methylbenzyl)-2′-oxo-3,4-dihydro-1H-spiro[naphthalene-2,3′-pyrrolidine]-6-carboxamide], the pIC50 is not below 7.00.
As for `O=C(NO)c1ccc2c(c1)CC[C@@]1(CCN(Cc3ccccc3C(F)(F)F)C1=O)C2` [Compound I-67, (S)-N-hydroxy-2′-oxo-1′-(2-(trifluoromethyl)benzyl)-3,4-dihydro-1H-spiro[naphthalene-2,3′-pyrrolidine]-6-carboxamide], the pIC50 was 6.30 to 7.00.
As for `O=C(NO)c1ccc2c(c1)CC[C@@]1(CCN(Cc3ccccc3Cl)C1=O)C2` [Compound I-68, (S)-1′-(2-chlorobenzyl)-N-hydroxy-2′-oxo-3,4-dihydro-1H-spiro[naphthalene-2,3′-pyrrolidine]-6-carboxamide], the pIC50 is 6.30 to 7.00.
With `O=C(NO)c1ccc2c(c1)CC[C@@]1(CCN(Cc3ccccc3OC(F)(F)F)C1=O)C2` [Compound I-69, (S)-N-hydroxy-2′-oxo-1′-(2-(trifluoromethoxy)benzyl)-3,4-dihydro-1H-spiro[naphthalene-2,3′-pyrrolidine]-6-carboxamide], the pIC50 is 6.30 to 7.00.
